# Assay results published in patent US9187459B2, “Quinazoline-7-ether compounds and methods of use” (NewGen Therapeutics, Inc., priority 2011, dated 2015).
# Key:
# NCI-N87 xenograft = assay: In vivo efficacy in NCI-N87 xenograft mouse model
# Method: NCI-N87 cell line was purchased from ATCC (American Type Culture Collection) and was cultured in RPMI1640+10% FBS+1% P/S antibiotics.
# Male Balb/c nude mice, 6-8 week, 18±2 g (supplier: Shanghai SLAC Laboratory Animal Co. Ltd.) were used for the experiment. The purchased mice were adapted to the environment for 7 days before use, and were housed at 22-25° C. with humidity 40-70%, and light cycle with fluorescent light for 12-hour light (8:00-20:00) 12-hour dark. The mice have free access to food and water.
# The cancer cells (NCI-N87) were implanted subcutaneous into the nude mice (right flank) with 5.0×10^6 cells in 0.1 ml PBS (50 mice). When the tumor size reaches a volume of 200 (150-200) mm^3, the tumor-bearing nude mice were randomly assigned into groups (10 mice/group), one group was served as vehicle, one group was administrated with Lapatinib ditosylate monoydrate (80 mg/kg, free base of Lapatinib, not salt, p.o. bid). The other two groups were administrated with NT112 (15 and 30 mg/kg, p.o. q.d, respectively). The administration period lasted for 4 weeks.
# The mice were monitored twice daily for appearance and behavior, and for signs of morbidity and/or mortality. The tumor volume was measured twice a week, and the body weight was measured immediately before measuring the tumor volume throughout the whole study.
# At end of the experiment (compound administration for four weeks), all the tumor-bearing mice were sacrificed by cervical dislocation under deep anesthesia. The tumor mass was resected, and weighed.
# Tumor sizes were measured twice weekly in two dimensions using a caliper, and the volume was expressed in mm^3 using the formula: V=½×a×b^2 where a and b are the long and short diameters of the tumor, respectively. The tumor mass was weighed at the end of the experiment after harvested. V=½×a×b^2 (a, b is maximum and minimum diameters respectively). RTV(Relative Tumor Volume)=Vt/Vo • Vo is the tumor volume when the test article is initial administrated • Vt is the tumor volume of every measurement day after test article administration T/C(%)=TRTV/CRTV×100% • TRTV: RTV of test article-treatment group; CRTV: RTV of control group Inhibition rate (%)=(average tumor volume of control group−average cancer volume of test article treatment group)/average tumor volume of control group×100%
# ErbB2 (HER2) = ErbB2 (HER2) (Homo sapiens (Human), UniProt P04626); assay: Kinase inhibition assay (TR-FRET, LanthaScreen), ErbB2 (HER2); assay type: biochemical; conditions: ATP 1 mM
# Method: 1) The compound is dissolved in DMSO to prepare a 10 mM solution, and was diluted to 100 micoM with water. […] Kinase activity was determined with time-resolved Fret (TR-FRET) assay (LanthaScreen® kinase activity assay, from InVitrogen).
# 2) The assay is performed in a Black 384-well plate (from Corning). The kinase and the compound was incubated for […] at room temperature. ATP (1 mM) and fluorescein-poly GT were added, and the reaction was incubated for […]. Detection agent SA-XL665 (from Cisbio Assay) and TK Ab-Cryptate detection antibody (from InVitrogen) were added to stop the reaction.
# 3) The 384-well plate was sealed and incubated for 1 hour. The fluorescence was then measured at […] (Cryptate) and 665 nM (XL655) wavelength.
# 4) Each concentration of compound was done in triplicate, and vehicle (without compound) and a positive control were used.
# Data process: the ratio of fluorescence is calculated (value of fluorescence 665 nM over […]). The results are calculated from: signal=compound fluorescence ratio−vehicle ratio, and the IC50 was calculated based on inhibition curve.
# [1] = tested on: Human breast cancer BT474 cells; assay: Cell proliferation inhibition assay for BT474 (CCK-8); assay type: cell-based; conditions: BT-474, 72 h, text calls it EC50
# Method: 1) Human breast cancer BT474 cells were plated 10000 cells/well in a 96-well clear tissue culture plate. The cells were incubated for 24 h at 37° C. to allow adherence.
# 2) A serials of concentrations of each compound (ranging from 30 uM to 0.16 nM, 5-fold dilution) in 96-well plate, and incubated for 72 h. Each concentration was tested in triplicate. During the cell proliferation assay, BT474 cells were cultured in the complete cell culture solution (low-glucose DMEM containing 5% FBS, 50 ug/ml gentamicin).
# 3) The culture medium was removed via aspiration, and the cell viability was detected by CCK-8 cell proliferation kit.
# 4) The EC50 was calculated based on the proliferation curve.
# [2] = Pharmacokinetics studies in mice; assay type: in vivo, CD-1 mice; conditions: for bioavailability: CD-1, plasma, mouse; for AUC(0-t) / Cmax / MRT / AUC(0-inf) / half-life: CD-1, mouse plasma
# Method: (§1) The test article each was dissolved in 10% DMSO and 90% of (40% HP-β-CD in deionized water) to yield concentration at 0.4 mg/mL for intravenous administration, and 1 mg/mL for oral administration.
# (§2) Method development and plasma samples analysis were performed by Analytical Sciences Division of the Testing Facility by means of LC-MS/MS. The analytical results were confirmed using quality control samples for intra-assay variation (within day variation). The accuracy of >66% of the quality control samples was between 80-120% of the known value(s).
# Each group is consisted 30 CD-1 mice (supplied by Sino-British SIPPR/BK Lab. Animal Ltd., Co, Shanghai), 5-8 week old, 20-28 g body weight. The test articles were administered by a single bolus intravenous injection or via oral gavage.
# Any animals in poor health were identified for further monitoring or possible euthanasia.
# Blood samples (at least 300 μL/sample) were collected via cardiac puncture after euthanasia by carbon dioxide inhalation at appropriate time points for determination of the plasma concentrations of the test article. Samples were placed in tubes containing K3-EDTA and stored on ice until centrifuged.
# Three mice in each group were used for blood collection at each of the 10 time points (Groups 1-10): Pre-dose and post-dose at 5 min, 15 min, 30 min, 1 h, 2 h, 4 h, 6 h, 8 h and 24 h.
# The PK blood samples were centrifuged at approximately 8000 rpm for 6 minutes at 2-8° C. and the resulting plasma were separated and stored frozen at approximately −80° C. (following separation, the plasma may be initially placed on ice prior to being stored in the −80° C. freezer). All the plasma samples were labeled with detailed information such as study number, animal number, matrix, time points of collection and date of collection.
# Standard set of parameters including Area Under the Curve (AUC(0-t) and AUC(0-∞)), elimination half-live (T1/2), maximum plasma concentration (Cmax), time to reach maximum plasma concentration (Tmax), clearance (CL), and volume of distribution (Vz) were calculated using noncompartmental analysis modules in FDA certified pharmacokinetic program WinNonlin Professional v5.2 (Pharsight, USA) by the Study Director. Furthermore, the Bioavailability was estimated using the following formula:
# • AUC(0-t) Area under the curve from the time of dosing to the last measurable concentration • AUC(0-∞) Area under the curve from the time of dosing extrapolated to infinity, based on the last observed concentration • CL Total body clearance, CL=Dose/AUC • Cmax Maximum observed concentration, occurring at Tmax • F Bioavailability • MRT(0-∞) Mean residence time from the time of dosing to infinity • Tmax Time of maximum observed concentration • T1/2 Terminal half-life=ln(2)λz • Vz Volume of distribution based on the terminal phase
# [3] = Pharmacokinetics studies in rats; assay type: in vivo, Sprauge Dawley rats; conditions: for bioavailability / AUC(0-inf) / AUC(0-t) / Cmax / clearance / half-life / Vd: male, Sprague-Dawley; for bioavailability: plasma, rat; for AUC(0-inf) / AUC(0-t) / Cmax / clearance / half-life / Vd / CL / Vz: rat plasma; for Vd: read-out: Vz
# Method: as §1, §2
# Each group consisted 3 male Sprauge Dawley rats (7-8 week old, 200-300 g body weight). The test articles were administered by a single bolus intravenous injection via the lateral tail vein or via oral gavage.
# Blood samples (approximately 300 μl) were collected via retro-orbital puncture after anaesthesia using mixed gas (CO2:O2=7:3) into tubes containing EDTA-K3 anticoagulant at appropriate time points. 10 time points (Groups 1-2): Pre-dose and post-dose at 5 min, 15 min, 30 min, 1 h, 2 h, 4 h, 6 h, 8 h and 24 h.
# The PK blood samples were processed and analyzed using the same methods as in Example 10.
# ErbB2 (HER2), sequence (P04626 23-1255): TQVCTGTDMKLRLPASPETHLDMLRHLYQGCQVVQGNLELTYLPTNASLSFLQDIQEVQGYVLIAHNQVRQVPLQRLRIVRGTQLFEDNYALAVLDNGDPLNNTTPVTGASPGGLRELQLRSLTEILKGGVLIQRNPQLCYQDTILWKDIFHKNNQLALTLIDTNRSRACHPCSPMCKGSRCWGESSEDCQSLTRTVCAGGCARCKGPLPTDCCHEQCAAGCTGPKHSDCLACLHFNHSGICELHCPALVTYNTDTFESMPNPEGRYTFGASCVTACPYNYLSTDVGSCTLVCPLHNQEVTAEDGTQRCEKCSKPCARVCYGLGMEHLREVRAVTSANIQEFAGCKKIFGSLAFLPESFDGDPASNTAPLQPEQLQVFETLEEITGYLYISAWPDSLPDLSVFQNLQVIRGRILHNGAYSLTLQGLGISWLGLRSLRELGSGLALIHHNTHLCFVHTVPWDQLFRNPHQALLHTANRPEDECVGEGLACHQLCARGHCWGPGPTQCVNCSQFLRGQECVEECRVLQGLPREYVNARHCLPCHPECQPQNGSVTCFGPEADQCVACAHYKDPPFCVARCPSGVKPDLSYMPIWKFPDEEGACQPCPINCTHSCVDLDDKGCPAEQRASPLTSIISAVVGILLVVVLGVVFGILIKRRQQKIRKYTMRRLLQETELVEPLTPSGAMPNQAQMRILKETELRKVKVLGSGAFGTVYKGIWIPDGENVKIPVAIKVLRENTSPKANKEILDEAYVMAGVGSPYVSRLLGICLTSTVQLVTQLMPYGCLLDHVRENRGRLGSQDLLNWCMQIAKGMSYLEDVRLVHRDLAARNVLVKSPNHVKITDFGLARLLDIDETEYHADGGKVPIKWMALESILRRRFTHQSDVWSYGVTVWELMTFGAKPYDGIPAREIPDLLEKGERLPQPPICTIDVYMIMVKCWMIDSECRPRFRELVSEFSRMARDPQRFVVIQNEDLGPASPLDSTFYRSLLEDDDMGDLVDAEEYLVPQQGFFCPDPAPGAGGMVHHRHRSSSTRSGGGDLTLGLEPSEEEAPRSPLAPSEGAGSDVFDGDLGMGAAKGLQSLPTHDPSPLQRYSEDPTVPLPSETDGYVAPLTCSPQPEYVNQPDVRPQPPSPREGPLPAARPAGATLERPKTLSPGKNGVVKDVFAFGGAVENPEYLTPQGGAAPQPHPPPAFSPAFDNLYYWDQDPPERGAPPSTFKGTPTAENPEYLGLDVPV
smiles,measurement,setting,value
"CS(=O)(=O)CCNCc1ccc(-c2ccc3ncnc(Nc4ccc(OCc5cccc(F)c5)c(Cl)c4)c3c2)o1 [Lapatinib, reference compound]",RTV T/C,"NCI-N87 xenograft; day 7, 80 mg/kg p.o. bid",31%
same,tumor growth inhibition rate,"NCI-N87 xenograft; day 7, 80 mg/kg p.o. bid",69%
same,tumor inhibition rate,"NCI-N87 xenograft; day 28 (last day of the study), 80 mg/kg p.o. bid",92.9%
"CN(C)C/C=C/C(=O)Nc1cc2c(Nc3ccc(F)c(Cl)c3)ncnc2cc1OCC1C2COCC21 (stereo not drawn) [Example 2, (E)-N-(7-((3-oxa-bicyclo[3.1.0]hexan-6-yl)methoxy)-4-(3-chloro-4-fluorophenylamino)quinazolin-6-yl)-4-(dimethylamino)but-2-enamide]",IC50,ErbB2 (HER2),6 nM
same,IC50,[1],19.1 nM
"CN(C)C/C=C/C(=O)Nc1cc2c(Nc3ccc(F)c(Cl)c3)ncnc2cc1OCC12COCC1C2 (stereo not drawn) [Example 5, (E)-N-(7-((3-oxa-bicyclo[3.1.0]hexan-1-yl)methoxy)-4-(3-chloro-4-fluorophenylamino)quinazolin-6-yl)-4-(dimethylamino)but-2-enamide]",IC50,ErbB2 (HER2),91 nM
same,IC50,[1],157 nM
"CN(C)C/C=C/C(=O)Nc1cc2c(Nc3ccc(F)c(Cl)c3)ncnc2cc1O[C@H]1CCOC1 [afatinib, reference compound]",bioavailability,[2]; IV 1 mg/Kg (reference),100%
same,bioavailability,[2]; PO 5 mg/Kg,62%
same,AUC(0-t),[2]; IV 1 mg/Kg,54 ng·h/mL
same,Cmax,[2]; IV 1 mg/Kg,109 ng/mL
same,MRT,[2]; IV 1 mg/Kg,1.6 h
same,AUC(0-t),[2]; PO 5 mg/Kg,167 ng·h/mL
same,Cmax,[2]; PO 5 mg/Kg,17.6 ng/mL
same,MRT,[2]; PO 5 mg/Kg,9.3 h
same,bioavailability,[3]; IV 1 mg/Kg (reference),100%
same,bioavailability,"[3]; po, 5 mg/kg",44.7%
same,AUC(0-inf),[3]; IV 1 mg/Kg,147 ng·h/mL
same,AUC(0-t),[3]; IV 1 mg/Kg,137 ng·h/mL
same,Cmax,[3]; IV 1 mg/Kg,55.6 ng/mL
same,clearance,[3]; IV 1 mg/Kg,114 mL/min/kg
same,half-life,[3]; IV 1 mg/Kg,5.12 h
same,Vd,[3]; IV 1 mg/Kg,15.2 L/kg
same,AUC(0-inf),[3]; PO 5 mg/Kg,328 ng·h/mL
same,AUC(0-t),[3]; PO 5 mg/Kg,215 ng·h/mL
same,Cmax,[3]; PO 5 mg/Kg,49.2 ng/mL
same,half-life,[3]; PO 5 mg/Kg,11 h
same,CL,[3]; PO 5 mg/Kg,254.3 mL/min/kg
same,Vz,[3]; PO 5 mg/Kg,73.02 L/kg
"CN(C)C/C=C/C(=O)Nc1cc2c(Nc3ccc(F)c(Cl)c3)ncnc2cc1OC[C@]12COC[C@H]1C2 [Example 3, (E)-N-(7-(((1S,5S)-3-oxa-bicyclo[3.1.0]hexan-1-yl)methoxy)-4-(3-chloro-4-fluorophenylamino)quinazolin-6-yl)-4-(dimethylamino)but-2-enamide]",IC50,ErbB2 (HER2),23 nM
same,IC50,[1],31.8 nM
"CN(C)C/C=C/C(=O)Nc1cc2c(Nc3ccc(F)c(Cl)c3)ncnc2cc1OC[C@@]12COC[C@@H]1C2 [Example 4, (E)-N-(7-(((1R,5R)-3-oxa-bicyclo[3.1.0]hexan-1-yl)methoxy)-4-(3-chloro-4-fluorophenylamino)quinazolin-6-yl)-4-(dimethylamino)but-2-enamide]",IC50,ErbB2 (HER2),22 nM
same,IC50,[1],25.6 nM
"CO[C@@H]1CO[C@@H]2[C@H]1OC[C@@H]2Oc1cc2ncnc(Nc3ccc(F)c(Cl)c3)c2cc1NC(=O)/C=C/CN(C)C [Example 1, (E)-N-(7-((3R,3aS,6S,6aS)-hexahydro-3-methoxyfuro[3,2-b]furan-6-yloxy)-4-(3-chloro-4-fluorophenylamino)quinazolin-6-yl)-4-(dimethylamino)but-2-enamide]",IC50,ErbB2 (HER2),25 nM
same,IC50,[1],35.9 nM
CN(C)C/C=C/C(=O)Nc1cc2c(Nc3ccc(F)c(Cl)c3)ncnc2cc1OC[C@H]1[C@@H]2COC[C@@H]21 [NT112],bioavailability,[2]; IV 1 mg/Kg (reference),100%
same,bioavailability,[2]; PO 5 mg/Kg,49.7%
same,AUC(0-inf),[2]; IV 1 mg/Kg,592 ng·h/mL
same,AUC(0-t),[2]; IV 1 mg/Kg,575 ng·h/mL
same,Cmax,[2]; IV 1 mg/Kg,236 ng/mL
same,half-life,[2]; IV 1 mg/Kg,4.44 h
same,AUC(0-inf),[2]; PO 5 mg/Kg,1470 ng·h/mL
same,AUC(0-t),[2]; PO 5 mg/Kg,1420 ng·h/mL
same,Cmax,[2]; PO 5 mg/Kg,272 ng/mL
same,half-life,[2]; PO 5 mg/Kg,11.1 h
same,side effect,"NCI-N87 xenograft; 15 mg/kg po qd, 4 weeks",without predefined side effect
same,body weight change,"NCI-N87 xenograft; 30 mg/kg p.o. qd, 7 days/week, onset day 3, maximal day 11, dosing stopped, recovered by day 28",led to body weight loss
same,RTV T/C,"NCI-N87 xenograft; day 7, 15 mg/kg po qd",< 30%
same,tumor growth inhibition,"NCI-N87 xenograft; day 7, 15 mg/kg po qd",> 70%
same,RTV T/C,"NCI-N87 xenograft; day 7, 30 mg/kg po qd",< 30%
same,tumor growth inhibition,"NCI-N87 xenograft; day 7, 30 mg/kg po qd",> 70%
same,bioavailability,[3]; IV 1 mg/Kg (reference),100%
same,bioavailability,"[3]; po, 5 mg/kg",68%
same,AUC(0-inf),[3]; IV 1 mg/Kg,248 ng·h/mL
same,AUC(0-t),[3]; IV 1 mg/Kg,220 ng·h/mL
same,Cmax,[3]; IV 1 mg/Kg,59.3 ng/mL
same,clearance,[3]; IV 1 mg/Kg,67.2 mL/min/kg
same,half-life,[3]; IV 1 mg/Kg,6.05 h
same,Vd,[3]; IV 1 mg/Kg,10.6 L/kg
same,AUC(0-inf),[3]; PO 5 mg/Kg,843 ng·h/mL
same,AUC(0-t),[3]; PO 5 mg/Kg,434 ng·h/mL
same,Cmax,[3]; PO 5 mg/Kg,74.9 ng/mL
same,half-life,[3]; PO 5 mg/Kg,20 h
same,"exposure and oral bioavailability with oral administration, compared to afatinib",[3]; oral administration,higher exposure and better oral bioavailability
same,CL,[3]; PO 5 mg/Kg,98.8 mL/min/kg
same,Vz,[3]; PO 5 mg/Kg,51.55 L/kg
